Bridge positions count the residues as written; N and C are the ends. Peptide text beside a SMILES is read from it.
Target: α-chymotrypsin (Bos taurus, UniProt P00766)
Assay: Chymotrypsin inhibitory activity of peptides (AAPFpNA hydrolysis; IC50, Ki, residual activity)
Type: biochemical
Settings: for IC50: chymotrypsin 30 nM, AAPFpNA 0.5 mM; for Ki: Ki=IC50/(1+S/Km), Km 0.38 mM
Outline: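 Peptide preincubated 10 min at 37 °C with 30 nM α-chymotrypsin in 50 mM Tris-HCl pH 7.8, 20 mM CaCl2; 0.5 mM AAPFpNA then added and A405 read after 90 min. Residual activity versus controls gave IC50; Ki = IC50/(1+S/Km), with Km measured separately.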

| SMILES | IC50 [µM] | inhibitory activity against chymotrypsin (in words) | Ki [nM] | further results |
| --- | --- | --- | --- | --- |
| CC[C@H](C)[C@@H]1NC(=O)[C@H](CO)NC(=O)[C@H](Cc2ccc(O)cc2)NC(=O)[C@H]([C@@H](C)O)NC(=O)[C@H](C)NC(=O)[C@H](CO)NC(=O)CNC(=O)CNC(=O)[C@@H](N)CSSC[C@@H](C(=O)N[C@@H](Cc2ccc(O)cc2)C(=O)O)NC(=O)[C@H](CCC(N)=O)NC(=O)[C@@H]2CCCN2C(=O)[C@@H]2CCCN2C1=O [CH29] (H-CGGSATYSIPPQCY-OH; disulfide 1-13; N-terminus and C-terminus assumed) | > 50 | – | – | – |
| CC[C@H](C)[C@@H]1NC(=O)[C@H](CO)NC(=O)[C@H](Cc2ccc(O)cc2)NC(=O)[C@H]([C@@H](C)O)NC(=O)[C@H](C)NC(=O)[C@H](Cc2ccc(O)cc2)NC(=O)CNC(=O)[C@@H](N)CSSC[C@@H](C(=O)N[C@@H](Cc2ccc(O)cc2)C(=O)NCC(=O)O)NC(=O)[C@H](CCC(N)=O)NC(=O)[C@@H]2CCCN2C(=O)[C@@H]2CCCN2C1=O [CH30] (H-CGYATYSIPPQCYG-OH; disulfide 1-12) | > 50 | – | – | – |
| CC[C@H](C)[C@@H]1NC(=O)[C@H](CO)NC(=O)[C@H](Cc2ccc(O)cc2)NC(=O)[C@H]([C@@H](C)O)NC(=O)[C@H](C)NC(=O)[C@H](C)NC(=O)CNC(=O)[C@@H](N)CSSC[C@@H](C(=O)N[C@@H](Cc2ccccc2)C(=O)O)NC(=O)[C@H](CCCCN)NC(=O)[C@H](C)NC(=O)[C@@H]2CCCN2C1=O [CH31] (H-CGAATYSIPAKCF-OH; disulfide 1-12; N-terminus and C-terminus assumed) | 6.08 | certain inhibitory activity | 2630 | Residual activity of chymotrypsin (peptide 0.01 μM): 107.4 ± 5.6%; Residual activity of chymotrypsin (peptide 0.1 μM): 104.3 ± 1.7%; Residual activity of chymotrypsin (peptide 1 μM): 104.8 ± 2.6%; Residual activity of chymotrypsin (peptide 8 μM): 42.5 ± 5.9%; Residual activity of chymotrypsin (peptide 10 μM): 29.5 ± 5.1%; Residual activity of chymotrypsin (peptide 25 μM): 12.7 ± 4.0%; Residual activity of chymotrypsin (peptide 100 μM): 2.6 ± 0.3%; Residual activity of chymotrypsin (peptide 300 μM): 1.0 ± 0.1%; Residual activity of chymotrypsin (peptide 1000 μM): 0.4 ± 0.0% |
| CC[C@H](C)[C@@H]1NC(=O)[C@H](CO)NC(=O)[C@H](Cc2ccc(O)cc2)NC(=O)[C@H]([C@@H](C)O)NC(=O)[C@H](C)NC(=O)[C@H](C)NC(=O)CNC(=O)CNC(=O)[C@@H](N)CSSC[C@@H](C(=O)N[C@@H](Cc2ccccc2)C(=O)O)NC(=O)[C@H](CCCCN)NC(=O)[C@H](C)NC(=O)[C@@H]2CCCN2C1=O [CH32] (H-CGGAATYSIPAKCF-OH; disulfide 1-13; N-terminus and C-terminus assumed) | 6.38 | certain inhibitory activity | 2760 | Residual activity of chymotrypsin (peptide 0.01 μM): 99.5 ± 0.1%; Residual activity of chymotrypsin (peptide 0.1 μM): 100.2 ± 1.9%; Residual activity of chymotrypsin (peptide 1 μM): 99.0 ± 2.0%; Residual activity of chymotrypsin (peptide 4 μM): 90.1 ± 6.1%; Residual activity of chymotrypsin (peptide 6 μM): 49.2 ± 2.7%; Residual activity of chymotrypsin (peptide 8 μM): 40.8 ± 6.0%; Residual activity of chymotrypsin (peptide 25 μM): 14.4 ± 1.1%; Residual activity of chymotrypsin (peptide 100 μM): 2.2 ± 0.2%; Residual activity of chymotrypsin (peptide 300 μM): 0.7 ± 0.1% |
| CC[C@H](C)[C@@H]1NC(=O)[C@H](CO)NC(=O)[C@H](Cc2ccc(O)cc2)NC(=O)[C@H]([C@@H](C)O)NC(=O)[C@@H](NC(=O)[C@@H](N)Cc2ccccc2)CSSC[C@@H](C(=O)N[C@@H](Cc2ccc(O)cc2)C(=O)O)NC(=O)[C@H](CCC(N)=O)NC(=O)[C@@H]2CCCN2C(=O)[C@@H]2CCCN2C1=O [CH33] (H-FCTYSIPPQCY-OH; disulfide 2-10; C-terminus assumed) | – | good inhibitory activity | – | – |
| CC[C@H](C)[C@@H]1NC(=O)[C@H](CO)NC(=O)[C@H](Cc2ccc(O)cc2)NC(=O)[C@H]([C@@H](C)O)NC(=O)[C@@H](NC(=O)[C@@H](N)Cc2ccccc2)CSSC[C@@H](C(=O)N[C@@H](Cc2ccc(O)cc2)C(=O)N[C@@H](C)C(=O)O)NC(=O)[C@H](CCC(N)=O)NC(=O)[C@@H]2CCCN2C(=O)[C@@H]2CCCN2C1=O [CH34] (H-FCTYSIPPQCYA-OH; disulfide 2-10; N-terminus and C-terminus assumed) | – | good inhibitory activity | – | – |
| CC[C@H](C)[C@@H]1NC(=O)[C@H](CO)NC(=O)[C@H](Cc2ccc(O)cc2)NC(=O)[C@H]([C@@H](C)O)NC(=O)[C@@H](NC(=O)[C@@H](N)Cc2ccccc2)CSSC[C@@H](C(=O)N[C@@H](CCCNC(=N)N)C(=O)O)NC(=O)[C@H](CCC(N)=O)NC(=O)[C@@H]2CCCN2C(=O)[C@@H]2CCCN2C1=O [CH35] (H-FCTYSIPPQCR-OH; disulfide 2-10; C-terminus assumed) | – | good inhibitory activity | – | Residual activity of chymotrypsin (peptide 1000 μM): 0.9 ± 0.1% |
| CC[C@H](C)[C@@H]1NC(=O)[C@H](CO)NC(=O)[C@H](Cc2ccc(O)cc2)NC(=O)[C@H]([C@@H](C)O)NC(=O)[C@@H](NC(=O)[C@@H](N)Cc2ccccc2)CSSC[C@@H](C(=O)N[C@@H](Cc2ccc(O)cc2)C(=O)O)NC(=O)[C@H](CCCCN)NC(=O)[C@H](C)NC(=O)[C@@H]2CCCN2C1=O [CH36] (H-FCTYSIPAKCY-OH; disulfide 2-10; N-terminus and C-terminus assumed) | 3.23 | – | 1390 | – |
| CC[C@H](C)[C@@H]1NC(=O)[C@H](CO)NC(=O)[C@H](Cc2ccc(O)cc2)NC(=O)[C@H]([C@@H](C)O)NC(=O)[C@@H](NC(=O)[C@@H](N)Cc2ccccc2)CSSC[C@@H](C(=O)N[C@@H](Cc2ccc(O)cc2)C(=O)O)NC(=O)[C@H](CCC(N)=O)NC(=O)[C@H](C)NC(=O)[C@@H]2CCCN2C1=O [CH37] (H-FCTYSIPAQCY-OH; disulfide 2-10; N-terminus and C-terminus assumed) | 1.81 | – | 780 | – |
| CC[C@H](C)[C@H](N)C(=O)N[C@H]1CSSC[C@@H](C(=O)N[C@H](C(=O)O)[C@@H](C)CC)NC(=O)[C@H](CCC(N)=O)NC(=O)[C@H](C)NC(=O)[C@@H]2CCCN2C(=O)[C@H]([C@@H](C)CC)NC(=O)[C@H](CO)NC(=O)[C@H](Cc2ccccc2)NC(=O)[C@H]([C@@H](C)O)NC1=O [CH38] (H-ICTFSIPAQCI-OH; disulfide 2-10; N-terminus and C-terminus assumed) | 4.98 | – | 2150 | – |
| CC[C@H](C)[C@H](N)C(=O)N[C@H]1CSSC[C@@H](C(=O)N[C@@H](Cc2ccccc2)C(=O)O)NC(=O)[C@H](CCC(N)=O)NC(=O)[C@H](C)NC(=O)[C@@H]2CCCN2C(=O)[C@H]([C@@H](C)CC)NC(=O)[C@H](CO)NC(=O)[C@H](Cc2ccccc2)NC(=O)[C@H]([C@@H](C)O)NC1=O [CH40] (H-ICTFSIPAQCF-OH; disulfide 2-10; N-terminus and C-terminus assumed) | 2.46 | – | 1060 | – |
| CSCC[C@@H]1NC(=O)[C@H](CO)NC(=O)[C@H](Cc2ccc(O)cc2)NC(=O)[C@H]([C@@H](C)O)NC(=O)[C@@H](NC(=O)[C@@H](N)Cc2ccccc2)CSSC[C@@H](C(=O)N[C@H](C(=O)O)C(C)C)NC(=O)[C@H](Cc2c[nH]cn2)NC(=O)[C@@H]2CCCN2C(=O)[C@@H]2CCCN2C1=O [CH41] (H-FCTYSMPPHCV-OH; disulfide 2-10; N-terminus and C-terminus assumed) | 2.6 | – | 1120 | – |
| CC(C)C[C@H](NC(=O)[C@@H]1CSSC[C@H](NC(=O)[C@@H](N)CCCNC(=N)N)C(=O)N[C@@H](CC(=O)O)C(=O)N[C@@H](Cc2ccccc2)C(=O)N[C@@H](CO)C(=O)N[C@@H](Cc2c[nH]c3ccccc23)C(=O)N2CCC[C@H]2C(=O)N2CCC[C@H]2C(=O)N[C@@H](CCCNC(=N)N)C(=O)N1)C(=O)O [CH42] (H-RCDFSWPPRCL-OH; disulfide 2-10; N-terminus and C-terminus assumed) | > 50 | – | – | – |
| C[C@@H]1NC(=O)[C@@H](NC(=O)[C@@H](N)Cc2ccccc2)CSSC[C@@H](C(=O)N[C@@H](CCC(N)=O)C(=O)O)NC(=O)[C@H](CCC(N)=O)NC(=O)[C@@H]2CCCN2C(=O)[C@@H]2CCCN2C(=O)[C@H](CC(N)=O)NC(=O)[C@H](CO)NC(=O)[C@H](Cc2ccc(O)cc2)NC1=O [CH43] (H-FCAYSNPPQCQ-OH; disulfide 2-10; N-terminus and C-terminus assumed) | 9.2 | – | 3970 | – |
| C[C@@H]1NC(=O)[C@@H](NC(=O)[C@@H](N)Cc2ccccc2)CSSC[C@@H](C(=O)N[C@@H](CCC(N)=O)C(=O)O)NC(=O)[C@H](CCCCN)NC(=O)[C@@H]2CCCN2C(=O)[C@@H]2CCCN2C(=O)[C@H](CC(N)=O)NC(=O)[C@H](CO)NC(=O)[C@H](Cc2ccc(O)cc2)NC1=O [CH44] (H-FCAYSNPPKCQ-OH; disulfide 2-10; N-terminus and C-terminus assumed) | 19.9 | – | 8590 | – |
| C[C@@H]1NC(=O)[C@@H](NC(=O)[C@@H](N)Cc2ccccc2)CSSC[C@@H](C(=O)N[C@@H](CCC(N)=O)C(=O)O)NC(=O)[C@H](CCCCN)NC(=O)[C@@H]2CCCN2C(=O)[C@@H]2CCCN2C(=O)[C@H](Cc2ccc(O)cc2)NC(=O)[C@H](CO)NC(=O)[C@H](Cc2ccc(O)cc2)NC1=O [CH45] (H-FCAYSYPPKCQ-OH; disulfide 2-10; N-terminus and C-terminus assumed) | 19.2 | – | 8290 | – |

Source: patent US20230416329A1, “A PEPTIDE WITH DISULFIDE BONDS AND INHIBITORY ACTIVITY AGAINST SERINE PROTEASES, DERIVED HYBRID PEPTIDES THEREOF, AND USES THEREOF” (INSTITUTE OF MATERIA MEDICA , CHINESE ACADEMY OF MEDICAL …, priority 2020, published 2023)
